Source: US20030211072A1, “Compositions with enhanced oral bioavailability” (priority 2000, published 2003)
Where “and” joins values, the source holds several entries; their conditions need not be identical. Equal values may be shown once. Each block holds one compound with its values, some of them ahead of it.

Assays:
rat everted gut sacs [1] = conditions: male, Wistar
rat everted gut sacs [2] = assay: Gut sac viability (active glucose transport)
rat everted gut sacs [3] = assay: Everted rat intestinal sacs: tissue uptake and serosal transfer of [3H]vinblastine, alone or with verapamil/enhancer
[4] = In vivo biodistribution of [3H]vinblastine (100 ng/kg) after oral gavage, alone or co-administered with ascophyllum, xanthan gum or polidocanol; conditions: for AUC Control of [3H]Vinblastine: 100 ng/kg alone
rat everted gut sacs [5] = assay: Everted rat intestinal sacs: tissue uptake and serosal transfer of [14C]doxorubicin, alone or with verapamil/enhancer
[6] = [3H]vinblastine 1 ng/ml alone (Control), 90 min
[7] = [3H]vinblastine 1 ng/ml, verapamil 0 ng/ml, 60 min
[8] = [3H]vinblastine (−) verapamil, 0 min
[9] = [3H]vinblastine (−) verapamil, 30 min
[10] = [3H]vinblastine (−) verapamil, 60 min
[11] = [3H]vinblastine (−) verapamil, 90 min
[12] = [3H]vinblastine (−) verapamil, 120 min
[13] = [3H]vinblastine alone 0.1 μg/ml, 60 min
[14] = [3H]vinblastine alone 0.3 μg/ml, 60 min
[15] = [3H]vinblastine alone 0.7 μg/ml, 60 min
[16] = [3H]vinblastine alone 1.0 μg/ml, 60 min
[17] = 5 min-24 h, vinblastine 100 ng/kg alone (control)
[18] = [3H]vinblastine 100 ng/kg alone, after 5 hours
[19] = [3H]vinblastine 100 ng/kg alone, after 24 hours
[20] = [14C]doxorubicin 1 ng/ml alone (Control), 90 min
[21] = [14C]doxorubicin 1 ng/ml, verapamil 0 ng/ml, 60 min
[22] = [14C]doxorubicin 10 ng/ml alone (Control), 90 min
[23] = [14C]doxorubicin 100 ng/ml alone (Control), 90 min
[24] = [14C]doxorubicin (−) verapamil, 0 min
[25] = [14C]doxorubicin (−) verapamil, 30 min
[26] = [14C]doxorubicin (−) verapamil, 60 min
[27] = [14C]doxorubicin (−) verapamil, 90 min
[28] = [14C]doxorubicin (−) verapamil, 120 min
[29] = [14C]doxorubicin alone 1 ng/ml, 60 min
[30] = [14C]doxorubicin alone 3 ng/ml, 60 min
[31] = [14C]doxorubicin alone 10 ng/ml, 60 min
[32] = [14C]doxorubicin alone 100 ng/ml, 60 min
[33] = [14C]doxorubicin alone 300 ng/ml, 60 min

SMILES: COc1ccc(CCN(C)CCCC(C#N)(c2ccc(OC)c(OC)c2)C(C)C)cc1OC (stereo not shown) [Verapamil, verapamil]
effect on tissue uptake and serosal transfer of [14C]doxorubicin (rat everted gut sacs [1]): significantly (p<0.05, unpaired student T-test) increased | increase of [14C]doxorubicin uptake and accumulation into the tissue (rat everted gut sacs [1]): 2 fold | tissue viability (glucose actively transported) (rat everted gut sacs [2]; verapamil, exception: 40 μg/ml combined with 1 ng/ml [3H]vinblastine): good tissue viability

SMILES: CC[C@]1(O)C[C@@H]2CN(CCc3c([nH]c4ccccc34)[C@@](C(=O)OC)(c3cc4c(cc3OC)N(C)[C@H]3[C@@](O)(C(=O)OC)[C@H](OC(C)=O)[C@]5(CC)C=CCN6CC[C@]43[C@@H]65)C2)C1 [[^3H]Vinblastine, vinblastine]
tissue viability (glucose actively transported) (rat everted gut sacs [2]; [3H]vinblastine, exception: concentrations higher than 1 ng/ml): good tissue viability | Serosal transfer (rat everted gut sacs [3]; [6]): 0.006 ng/mg of protein | Tissue uptake (rat everted gut sacs [3]; [6]): 0.061 + ng/mg of protein and 0.061 ng/mg of protein | Total uptake (rat everted gut sacs [3]; [6]): 0.067 ng/mg of protein | Serosal transfer (rat everted gut sacs [3]; [7]): 0.002 ± 0.000 ng/mg of protein | Tissue uptake (rat everted gut sacs [3]; [7]): 0.032 ± 0.005 ng/mg of protein | Serosal transfer (rat everted gut sacs [3]; [8]): 0.000 ng/mg of protein | Tissue uptake (rat everted gut sacs [3]; [8]): 0.001 ng/mg of protein | Total uptake (rat everted gut sacs [3]; [8]): 0.001 ng/mg of protein | Serosal transfer (rat everted gut sacs [3]; [9]): 0.002 ng/mg of protein | Tissue uptake (rat everted gut sacs [3]; [9]): 0.005 ng/mg of protein | Total uptake (rat everted gut sacs [3]; [9]): 0.007 ng/mg of protein | Serosal transfer (rat everted gut sacs [3]; [10]): 0.003 ng/mg of protein | Tissue uptake (rat everted gut sacs [3]; [10]): 0.032 ng/mg of protein | Total uptake (rat everted gut sacs [3]; [10]): 0.035 ng/mg of protein | Serosal transfer (rat everted gut sacs [3]; [11]): 0.006 ng/mg of protein | Tissue uptake (rat everted gut sacs [3]; [11]): 0.049 ng/mg of protein | Total uptake (rat everted gut sacs [3]; [11]): 0.055 ng/mg of protein | Serosal transfer (rat everted gut sacs [3]; [12]): 0.008 ng/mg of protein | Tissue uptake (rat everted gut sacs [3]; [12]): 0.050 ng/mg of protein | Total uptake (rat everted gut sacs [3]; [12]): 0.058 ng/mg of protein | Serosal transfer (rat everted gut sacs [3]; [13]): 0.000 ± 0.000 ng/mg of protein | Tissue uptake (rat everted gut sacs [3]; [13]): 0.009 ± 0.000 ng/mg of protein | Serosal transfer (rat everted gut sacs [3]; [14]): 0.001 ± 0.000 ng/mg of protein | Tissue uptake (rat everted gut sacs [3]; [14]): 0.011 ± 0.001 ng/mg of protein | Serosal transfer (rat everted gut sacs [3]; [15]): 0.002 ± 0.001 ng/mg of protein | Tissue uptake (rat everted gut sacs [3]; [15]): 0.017 ± 0.001 ng/mg of protein | Serosal transfer (rat everted gut sacs [3]; [16]): 0.003 ± 0.001 ng/mg of protein | Tissue uptake (rat everted gut sacs [3]; [16]): 0.029 ± 0.007 ng/mg of protein | AUC Control of [^3H]Vinblastine, Blood [4, 17]: 53.47 % Dose/organ weight | AUC Control of [^3H]Vinblastine, Cecum [4, 17]: 20.20 % Dose/organ weight | AUC Control of [^3H]Vinblastine, Faeces [4, 17]: 4.58 % Dose/organ weight | AUC Control of [^3H]Vinblastine, Heart [4, 17]: 1.80 % Dose/organ weight | AUC Control of [^3H]Vinblastine, Kidney [4, 17]: 0.98 % Dose/organ weight | AUC Control of [^3H]Vinblastine, Large Intestinal Wash [4, 17]: 6.46 % Dose/organ weight | AUC Control of [^3H]Vinblastine, Large Intestine [4, 17]: 1.08 % Dose/organ weight | AUC Control of [^3H]Vinblastine, Liver [4, 17]: 4.36 % Dose/organ weight | AUC Control of [^3H]Vinblastine, Lung [4, 17]: 1.54 % Dose/organ weight | AUC Control of [^3H]Vinblastine, Small Intestinal Wash [4, 17]: 36.66 % Dose/organ weight | AUC Control of [^3H]Vinblastine, Small Intestine [4, 17]: 1.69 % Dose/organ weight | AUC Control of [^3H]Vinblastine, Spleen [4, 17]: 2.78 % Dose/organ weight | AUC Control of [^3H]Vinblastine, Stomach [4, 17]: 5.34 % Dose/organ weight | AUC Control of [^3H]Vinblastine, Urine [4, 17]: 1.79 % Dose/organ weight | AUC Control of [3H]Vinblastine ([4]; Blood, 5 min-24 h): 53.47 % Dose/organ weight | AUC Control of [3H]Vinblastine ([4]; Cecum, 5 min-24 h): 20.20 % Dose/organ weight | AUC Control of [3H]Vinblastine ([4]; Faeces, 5 min-24 h): 4.58 % Dose/organ weight | AUC Control of [3H]Vinblastine ([4]; Heart, 5 min-24 h): 1.80 % Dose/organ weight | AUC Control of [3H]Vinblastine ([4]; Kidney, 5 min-24 h): 0.98 % Dose/organ weight | AUC Control of [3H]Vinblastine ([4]; Large Intestinal Wash, 5 min-24 h): 6.46 % Dose/organ weight | AUC Control of [3H]Vinblastine ([4]; Large Intestine, 5 min-24 h): 1.08 % Dose/organ weight | AUC Control of [3H]Vinblastine ([4]; Liver, 5 min-24 h): 4.36 % Dose/organ weight | AUC Control of [3H]Vinblastine ([4]; Lung, 5 min-24 h): 1.54 % Dose/organ weight | AUC Control of [3H]Vinblastine ([4]; Small Intestinal Wash, 5 min-24 h): 36.66 % Dose/organ weight | AUC Control of [3H]Vinblastine ([4]; Small Intestine, 5 min-24 h): 1.69 % Dose/organ weight | AUC Control of [3H]Vinblastine ([4]; Spleen, 5 min-24 h): 2.78 % Dose/organ weight | AUC Control of [3H]Vinblastine ([4]; Stomach, 5 min-24 h): 5.34 % Dose/organ weight | AUC Control of [3H]Vinblastine ([4]; Urine, 5 min-24 h): 1.79 % Dose/organ weight | levels in blood over the time course ([4]; [3H]vinblastine 100 ng/kg alone, 5 min-24 h): remained constant | % of the dose in the stomach ([4]; [3H]vinblastine 100 ng/kg alone, after 1 hour): 1.2-1.6% | % found in the cecum [4, 18]: 1.7±0.3% | % found in the faeces [4, 18]: 0.33±0.03% | % in the blood [4, 19]: 3% | % in the heart [4, 19]: 0.7%

Serosal transfer (rat everted gut sacs [5]; [20]): 0.03 ± 0.00 ng/mg of protein | Tissue uptake (rat everted gut sacs [5]; [20]): 0.02 ± 0.00 ng/mg of protein | Total uptake (rat everted gut sacs [5]; [20]): 0.05 ± 0.01 ng/mg of protein | Serosal transfer (rat everted gut sacs [5]; [21]): 0.010 ± 0.000 ng/mg of protein | Tissue uptake (rat everted gut sacs [5]; [21]): 0.006 ± 0.000 ng/mg of protein | Serosal transfer (rat everted gut sacs [5]; [22]): 0.05 ± 0.00 ng/mg of protein | Tissue uptake (rat everted gut sacs [5]; [22]): 0.19 ± 0.03 ng/mg of protein | Total uptake (rat everted gut sacs [5]; [22]): 0.24 ± 0.03 ng/mg of protein | Serosal transfer (rat everted gut sacs [5]; [23]): 0.05 ± 0.07 ng/mg of protein | Tissue uptake (rat everted gut sacs [5]; [23]): 0.75 ± 0.13 ng/mg of protein | Total uptake (rat everted gut sacs [5]; [23]): 1.25 ± 0.07 ng/mg of protein | Serosal transfer (rat everted gut sacs [5]; [24]): 0.000 ng/mg of protein | Tissue uptake (rat everted gut sacs [5]; [24]): 0.001 ng/mg of protein | Total uptake (rat everted gut sacs [5]; [24]): 0.001 ng/mg of protein | Serosal transfer (rat everted gut sacs [5]; [25]): 0.008 ng/mg of protein | Tissue uptake (rat everted gut sacs [5]; [25]): 0.005 ng/mg of protein | Total uptake (rat everted gut sacs [5]; [25]): 0.013 ng/mg of protein | Serosal transfer (rat everted gut sacs [5]; [26]): 0.017 ng/mg of protein | Tissue uptake (rat everted gut sacs [5]; [26]): 0.007 ng/mg of protein | Total uptake (rat everted gut sacs [5]; [26]): 0.024 ng/mg of protein | Serosal transfer (rat everted gut sacs [5]; [27]): 0.027 ng/mg of protein | Tissue uptake (rat everted gut sacs [5]; [27]): 0.025 ng/mg of protein | Total uptake (rat everted gut sacs [5]; [27]): 0.052 ng/mg of protein | Serosal transfer (rat everted gut sacs [5]; [28]): 0.024 ng/mg of protein | Tissue uptake (rat everted gut sacs [5]; [28]): 0.030 ng/mg of protein | Total uptake (rat everted gut sacs [5]; [28]): 0.054 ng/mg of protein | Serosal transfer (rat everted gut sacs [5]; [29]): 0.0017 ± 0.002 ng/mg of protein | Tissue uptake (rat everted gut sacs [5]; [29]): 0.007 ± 0.005 ng/mg of protein | Serosal transfer (rat everted gut sacs [5]; [30]): 0.029 ± 0.005 ng/mg of protein | Tissue uptake (rat everted gut sacs [5]; [30]): 0.082 ± 0.015 ng/mg of protein | Serosal transfer (rat everted gut sacs [5]; [31]): 0.193 ± 0.028 ng/mg of protein | Tissue uptake (rat everted gut sacs [5]; [31]): 0.393 ± 0.078 ng/mg of protein | Serosal transfer (rat everted gut sacs [5]; [32]): 1.131 ± 0.500 ng/mg of protein | Tissue uptake (rat everted gut sacs [5]; [32]): 5.598 ± 1.280 ng/mg of protein | Serosal transfer (rat everted gut sacs [5]; [33]): 3.375 ± 0.900 ng/mg of protein | Tissue uptake (rat everted gut sacs [5]; [33]): 25.734 ± 3.668 ng/mg of protein | serosal transfer time course (rat everted gut sacs [5]; [14C]doxorubicin, levels plateaued after 90 min): only linear for 90 min
SMILES: COc1cccc2c1C(=O)c1c(O)c3c(c(O)c1C2=O)C[C@@](O)(C(=O)CO)C[C@@H]3O[C@H]1C[C@H](N)[C@H](O)[C@H](C)O1 [[^14C]Doxorubicin, doxorubicin]
